# In patent publication US11026910B2, “α- and γ-truxillic acid derivatives and pharmaceutical compositions thereof” (The Research Foundation for The State University of New York, priority 2012, dated 2021):
# “Also recorded” adds a separate entry of the source.
# How the values were obtained:
# PPARγ = biological target: T1, PPARγ (Homo sapiens, UniProt P37231); experiment: PPARγ transactivation in HeLa cells; assay type: cell-based
# T1 construct: expressed in transfected cells; host or cells: HeLa
# T1 sequence (P37231 1-505): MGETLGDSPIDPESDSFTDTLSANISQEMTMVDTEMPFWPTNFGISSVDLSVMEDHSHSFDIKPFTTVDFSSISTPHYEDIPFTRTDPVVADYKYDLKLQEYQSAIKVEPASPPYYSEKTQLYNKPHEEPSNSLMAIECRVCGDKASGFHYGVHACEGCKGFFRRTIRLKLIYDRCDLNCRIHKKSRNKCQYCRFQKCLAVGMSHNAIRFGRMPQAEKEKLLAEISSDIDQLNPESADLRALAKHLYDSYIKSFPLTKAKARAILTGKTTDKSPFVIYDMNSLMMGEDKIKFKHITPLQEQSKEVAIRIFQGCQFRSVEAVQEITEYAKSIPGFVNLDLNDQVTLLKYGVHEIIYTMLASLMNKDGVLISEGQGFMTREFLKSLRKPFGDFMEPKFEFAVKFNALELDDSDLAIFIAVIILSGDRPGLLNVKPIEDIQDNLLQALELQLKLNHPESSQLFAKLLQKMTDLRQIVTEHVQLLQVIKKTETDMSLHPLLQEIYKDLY
# Procedure: PPARα and PPARγ transactivation assays were performed in HeLa cells exactly as described (Kaczocha, M. et al. 2012).
# wild-type HeLa cells = experiment: AEA uptake in wild-type HeLa cells; assay type: cell-based
# Procedure: AEA uptake assays in wild-type and FABP5 knockdown HeLa cells were performed exactly as described (Kaczocha, M. et al. 2012).
# male C57Bl6 mice = experiment: Carrageenan-induced paw edema and thermal hyperalgesia; assay type: in vivo
# Procedure: We used male C57Bl6 mice (22-30 g, Taconic Farms) for all experiments. The animals were group housed at room temperature and kept on a 12:12 hour light:dark cycle with ad libitum access to water and food. The animals were habituated to the experimental room for one week before testing. All experiments were approved by the Stony Brook University Institutional Animal Care and Use Committee. The experimenter was blinded to the treatment conditions of each animal.
# Paw edema was induced by injecting 1% λ-carrageenan (20 μl, in sterile saline) into the plantar surface of the left hind paw and a control solution of saline into the right hind paw using a 27 gauge needle. Paw diameters were measured before carrageenan injection and 4 hours after injection using digital electronic calipers (Fisher) and expressed to the nearest ±0.01 mm. […] The cannabinoid receptor antagonists, rimonabant and SR144528 (3 mg/kg, i.p.), in ethanol:emulphor:saline (1:1:18), were injected 15 min before the FABP inhibitor. Edema is reported as the change in paw diameter at 4 hr over the baseline. Changes in paw diameter of saline-injected contralateral paws were negligible. Thermal hyperalgesia measured the latency to withdraw the paw from a focused beam of radiant heat applied to the plantar surface of the hind paw using a Hargreaves plantar apparatus (Ugo Basile) set at an intensity of 3.0. For each mouse, the average latencies consisted of three trials spaced at least 5 minutes apart. The mice were habituated to the test chamber for 30 min. The cutoff time was set at 30 sec.
# Behavioral data are presented as means±S.E.M. for the vehicle and inhibitor-treated groups, each consisting of at least 6 animals. Statistical significance between vehicle and inhibitor groups was determined using unpaired t-tests or one-way ANOVA followed by Dunnett's post hoc analysis. In all cases, differences of p<0.05 were considered significant.
smiles,measurement,setting,value
"O=C(O)[C@H]1[C@@H](c2ccccc2)[C@@H](C(=O)Oc2cccc3ccccc23)[C@@H]1c1ccccc1 (single isomer, unassigned) [Compound 26, α-2,4-diphenyl-cyclobutane-1,3-dicarboxylic Acid mono-(1-naphthol) Ester]",activation of PPARγ,"PPARγ; 6 hrs incubation, luciferase reporter",~3 fold
same,agonism at PPARγ,PPARγ; compared with rosiglitazone,weak agonist
same,cellular AEA uptake / accumulation,wild-type HeLa cells,significantly inhibited; also recorded: inhibits
same,antinociceptive and anti-edematous effects after rimonabant and SR144528 pretreatment,"male C57Bl6 mice; 20 mg/kg i.p., antagonists 3 mg/kg i.p. 15 min before",completely reversed; also recorded: blocked
same,"carrageenan-induced paw edema, 24 hrs after inhibitor administration","male C57Bl6 mice; 20 mg/kg, i.p. (FIG. 16A)",reduced
same,"carrageenan-induced thermal hyperalgesia, 24 hrs after inhibitor administration","male C57Bl6 mice; 20 mg/kg, i.p. (FIG. 16A)",reduced
same,carrageenan-induced thermal hyperalgesia,"male C57Bl6 mice; 20 mg/kg, i.p., 45 min prior to carrageenan (FIG. 10B)",significantly reduced; also recorded: alleviates
same,carrageenan-induced paw edema,"male C57Bl6 mice; 20 mg/kg, i.p., paw diameter at 4 hr (FIG. 10C)",significantly reduced; also recorded: reduces
